The text below walks through data of PubChem BioAssay AID720643 (The Scripps Research Institute Molecular Screening Center, 2013).

The assay concerns the target 5-hydroxytryptamine receptor 2A (Mus musculus) (UniProt P35363). Put plainly: agonist EC50 at mouse 5-HT2A receptor – cell-based, luminescence, CHO-K1, powder samples, dose response, late-stage follow-up (AID 720643). The following applies: CHO-K1 mHTR2A beta-arrestin PathHunter luminescence.

Active and inactive are the calls of the source.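 The calls were made as follows: active = EC50 of 10 µM or lower; inactive = EC50 above 10 µM.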

Chain of 5-hydroxytryptamine receptor 2A (Mus musculus) (P35363 whole entry, looked up): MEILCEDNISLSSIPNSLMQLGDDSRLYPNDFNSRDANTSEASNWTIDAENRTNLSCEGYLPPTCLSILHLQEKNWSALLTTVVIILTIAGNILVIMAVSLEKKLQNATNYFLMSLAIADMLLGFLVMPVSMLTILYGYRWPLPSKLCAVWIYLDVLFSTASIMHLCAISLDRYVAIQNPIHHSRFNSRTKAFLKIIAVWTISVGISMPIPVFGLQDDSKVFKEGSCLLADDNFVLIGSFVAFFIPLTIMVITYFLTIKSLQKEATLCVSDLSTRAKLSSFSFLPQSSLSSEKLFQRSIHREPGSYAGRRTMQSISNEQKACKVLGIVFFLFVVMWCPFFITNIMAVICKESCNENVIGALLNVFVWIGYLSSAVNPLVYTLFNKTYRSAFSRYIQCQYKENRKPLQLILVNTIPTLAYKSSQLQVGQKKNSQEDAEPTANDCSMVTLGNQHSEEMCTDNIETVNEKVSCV

As a reminder, the EC50 is the concentration giving half of the maximal effect. With `COc1cc(CN2CCN(c3ncccn3)CC2)cc(OC)c1`, the EC50 was > 76.1 µM (inactive).
With `Cc1ccc(CN2CCN(c3ncccn3)CC2)o1`, the EC50 was > 76.1 µM (inactive).
Turning to `c1ccc(N2CCN(Cc3ccsc3)CC2)nc1`, the EC50 is > 76.1 µM (inactive).
The result for `Clc1ccc(CN2CCN(c3ncccn3)CC2)cc1Cl` reads > 76.1 µM (inactive).
Turning to `CCCN(CCC)C1CCc2cccc(O)c2C1` (stereo not drawn), the EC50 is > 76.1 µM (inactive).
For `Cn1cc(C(F)(F)F)nc1-c1ccc(OCC(O)CNCCOc2ccc(O)c(C(N)=O)c2)cc1` (stereo not drawn), the EC50 is > 76.1 µM (inactive).
With `CCCN1CCC[C@H](c2cccc(O)c2)C1`, the EC50 was > 76.1 µM (inactive).
As for `Brc1ccc(CN2CCN(c3ccccn3)CC2)s1`, the figure is > 76.1 µM (inactive).
As to `Cc1ccc(CN2CCN(c3ncccn3)CC2)c(C)c1`, the EC50 was > 76.1 µM (inactive).
Turning to `O=C(CN1CCN(c2ccccn2)CC1)Nc1ccc(Oc2ccccc2)cc1`, the EC50 is > 76.1 µM (inactive).
For the molecule `c1ccc(COc2ccc(CN3CCN(c4ccccn4)CC3)cc2)cc1`, the EC50 was > 76.1 µM (inactive).
For `CC(=O)N1CCc2cc(C(=O)CN3CCN(c4cccc(Cl)c4)CC3)ccc21`, the EC50 is > 76.1 µM (inactive).
For `NC[C@@H]1O[C@H](C23CC4CC(CC(C4)C2)C3)Cc2c1ccc(O)c2O`, the EC50 is > 76.1 µM (inactive).
Regarding `CC1(C)C(C=C(Cl)Cl)C1C(=O)N1CCN(Cc2ccccc2)CC1` (stereo not drawn), the EC50 is > 76.1 µM (inactive).
`Cc1ccc(CN2CCN(c3ccccn3)CC2)s1`: the EC50 was > 76.1 µM (inactive).
On to `O=C(c1ccco1)N1CCN(Cc2ccc(Cl)cc2)CC1`, for which the EC50 was > 76.1 µM (inactive).
In the case of `Fc1ccc(F)c(CN2CCN(c3ncccn3)CC2)c1`, the EC50 was > 76.1 µM (inactive).
For `CCc1ccc(CN2CCN(C(=O)c3ccco3)CC2)cc1`, the EC50 was > 76.1 µM (inactive).
On to `Cc1cccc(CN2CCN(c3ccccn3)CC2)c1`, for which the EC50 is > 76.1 µM (inactive).
Regarding `OCC1(Cc2cccc(C(F)(F)F)c2)CCN(Cc2cc3ccccc3o2)CC1`, the EC50 was > 76.1 µM (inactive).
`COc1ccc(CN2CCN(c3ccccn3)CC2)c(OC)c1`: the EC50 was > 76.1 µM (inactive).
Turning to `Cc1cccc(CN2CCN(c3ncccn3)CC2)c1`, the EC50 was > 76.1 µM (inactive).
As to `CC(COc1ccccc1)N1CCC(CO)(Cc2ccccc2)CC1` (stereo not drawn), the EC50 was > 76.1 µM (inactive).
Consider `COc1ccc(CN2CCN(c3ncccn3)CC2)c(OC)c1`, for which the EC50 is > 76.1 µM (inactive).
Turning to `Oc1ccc(CN2CCN(c3ncccn3)CC2)cc1`, the EC50 is > 76.1 µM (inactive).
Regarding `NC1CCc2cc(O)c(O)cc2C1` (stereo not drawn), the EC50 is > 76.1 µM (inactive).
The result for `CCOC(=O)N1CCN(Cc2ccc(OCC(O)CN3CCCCC3)cc2)CC1` (stereo not drawn) reads > 76.1 µM (inactive); that for `COc1ccc(CC2(CO)CCN(Cc3cc4ccccc4o3)CC2)cc1`, > 76.1 µM (inactive); that for `OC(COc1ccc2cc(Br)ccc2c1)CN1CCN(c2ccccn2)CC1` (stereo not drawn), > 76.1 µM (inactive).
As for `COC(=O)C1=C(Cn2cnc3ccccc32)NC(=O)NC1c1cc(C)ccc1C` (stereo not drawn), the figure is 3.47 µM.
`COc1cccc(-n2cc(CNCc3cn(C)nc3-c3ccccc3F)cn2)c1`: the EC50 was > 76.1 µM (inactive).
As for `COc1ccc(CN2CCN(C(=O)c3ccco3)CC2)cc1OCc1ccccc1`, the EC50 was > 76.1 µM (inactive).
On to `Fc1ccccc1CN1CCN(c2ncccn2)CC1`, for which the EC50 was > 76.1 µM (inactive).
The result for `CN(c1ccc(C(=O)N2CCN(Cc3ccccc3)CC2)cc1)S(=O)(=O)c1ccc(Cl)cc1` reads > 76.1 µM (inactive); that for `CCOc1ccc(NC(=O)CCN2CCN(c3ccccc3F)CC2)cc1`, > 76.1 µM (inactive).
Turning to `CC1CC(C)CN(CCOc2cccc(Cl)c2Cl)C1` (stereo not drawn), the EC50 was > 76.1 µM (inactive).
Consider `Clc1ccccc1CN1CCN(c2ccccc2)CC1`, for which the EC50 is > 76.1 µM (inactive).
As to `CCOC(=O)C1CCN(Cc2cccc(Oc3ccc(Cl)cc3)c2)CC1`, the EC50 was > 76.1 µM (inactive).
With `COc1cccc(OCC(O)CN2CCN(c3ccccn3)CC2)c1` (stereo not drawn), the EC50 is > 76.1 µM (inactive).
The result for `C=CCN1CCc2nc(N)sc2CC1` reads > 76.1 µM (inactive); that for `COc1ccc(CN2CCN(c3ncccn3)CC2)c(C)c1C`, > 76.1 µM (inactive).
On to `CCn1c(=O)cc(SCC(=O)NCCCN2CCN(c3ccccc3F)CC2)c2ccccc21`, for which the EC50 is > 76.1 µM (inactive).
Turning to `Fc1cccc(CN2CCN(c3ncccn3)CC2)c1`, the EC50 is > 76.1 µM (inactive).
Turning to `Brc1cccc(CN2CCN(c3ncccn3)CC2)c1`, the EC50 is > 76.1 µM (inactive).
On to `CC(=O)N1CCC(N2CCN(c3ccccc3F)CC2)CC1`, for which the EC50 was > 76.1 µM (inactive).
Regarding `Cc1ccsc1CN1CCN(c2ccccn2)CC1`, the EC50 is > 76.1 µM (inactive).
In the case of `c1ccc(CN2CCN(c3ncccn3)CC2)cc1`, the EC50 is > 76.1 µM (inactive).
As for `CC(C)C[C@H]1C(=O)N2CCC[C@H]2[C@]2(O)O[C@](NC(=O)[C@@H]3C=C4c5cccc6[nH]c(Br)c(c56)CC4N(C)C3)(C(C)C)C(=O)N12` (stereo partly drawn), the EC50 was > 76.1 µM (inactive).
The result for `Clc1ccc(CN2CCN(c3ncccn3)CC2)cc1` reads > 76.1 µM (inactive); that for `COc1cc(Br)cc(CN2CCN(c3ncccn3)CC2)c1O`, > 76.1 µM (inactive).
For the molecule `Clc1ccccc1CN1CCN(c2ncccn2)CC1`, the EC50 was > 76.1 µM (inactive).
On to `CCOc1cc(CN2CCN(C(=O)c3ccco3)CC2)ccc1OC`, for which the EC50 is > 76.1 µM (inactive).
Regarding `COc1ccccc1C(=O)NCCN1CCN(c2ccccc2)CC1`, the EC50 was > 76.1 µM (inactive).
